Data set [1] concerns ERK phosphorylation in Calu-6 cells. The data set can be described thus: Calu-6 (Kras Q61K) ERK phosphorylation inhibition experiment (HTRF). The data set is classed as cell-based, human. The settings on record: Homo sapiens, Calu-6, 1 h, 1 hour incubation with compound. The method, then:
Experimental Embodiment 5: Calu-6 (Kras^Q61K) ERK Phosphorylation Inhibition Experiment
1) the cells were resuscitated and cultured to logarithmic growth phase, digested with trypsin, seeded in 96-well plates with 30000 cells per well, and incubated overnight in an incubator.
2) 1 μL of gradient compound dissolved with DMSO was added to a 96-well plate and placed back into an incubator to incubate for 1 hour.
3) The cell plates were removed out, and the culture medium was poured off, and 50 μL of cell lysate (with 1% blocking peptide) was added to each well.
4) The lysate plate was mixed at 500 rpm and incubated and lysed at room temperature for 30 minutes.
5) The antibody mixture in the kit was prepared at a ratio of 1:1:38.
6) 16 μL of cell lysate was transferred to the HTRF plate per well, then the 4 μL of the configured antibody mixture was added thereto.
7) After incubation overnight, the plate was read with Envision, and the fitted curve was obtained according to the ratio (the ratio of fluorescence intensity of […]) and the EC50 was calculated according to the four-parameter fitting formula Y=Bottom+(Top−Bottom)/(1+10^((Log EC50−X)*HillSlope)) of Graphpad.
(In general: TR-FRET usually uses a lanthanide donor and a delayed reading to cut background.)

The nature of data set [2]: Pharmacokinetics of single intravenous and oral administration in mice. The data set is classed as in vivo. The settings on record: for Vd / clearance / half-life: single intravenous administration, 0.5 mg/kg/day; for Vd: read-out: Apparent distribution volume Vdss; for clearance: read-out: Clearance rate Cl; for half-life: read-out: Half-life (T1/2) (converted); for Tmax / Cmax: single oral administration, 50 mg/kg/day; for Tmax: read-out: Peak time Tmax; for Cmax: read-out: Maximum plasma drug concentration Cmax. The procedure: (§1) Experimental Embodiment 6: Pharmacokinetics Study of Single Intravenous and Oral Administration in Mice and Dogs
(§2) This experiment was aimed to study the pharmacokinetics of the test compound in mice and dogs in vivo after a single oral administration of the compound.
(§3) After intravenous or oral administration, blood samples were collected and the actual blood collection time was recorded. After the blood sample was collected, the sample was immediately transferred to a labeled centrifuge tube containing K2-EDTA, and then the plasma was taken after centrifugation. The plasma was transferred to a precooled centrifuge tube, quickly frozen in dry ice, and stored in an ultra-low temperature refrigerator at −70±10° C. until LC-MS/MS analysis.
(§4) Pharmacokinetic software was used to process the plasma drug concentration data of the compound with […] model. The peak concentration (Cmax) and peak time (Tmax), as well as the end time of quantification, were obtained directly from the plasma drug concentration-time graph. The following pharmacokinetic parameters were calculated by logarithmic linear trapezoidal method: half-life (T1/2), apparent distribution volume (Vdss) and clearance rate (Cl), and the area under the time-plasma concentration curve from 0 to the end time point (AUC0-last).

A further data set deals with Calu-6 cells. The data set can be described thus: Calu-6 (Kras Q61K) antiproliferative activity experiment (CellTiterGlo). The data set is classed as cell-based, human. The conditions noted are these: cultured three days. The method, then: Experimental Embodiment 1: Calu-6 (Kras^Q61K) Antiproliferative Activity Experiment
(1) cell culture medium: 88% RPMI-1640, 10% fetal bovine serum, 1% L-glutamine and 1% penicillin-streptomycin;
(2) culture medium, trypsin and DPBS were preheated in a 37° C. water bath;
(3) the original culture medium was removed in the cell culture flask and washed once with 6 mL of PBS;
(4) 3.5 mL of trypsin was added to the cell culture flask, and the cell culture flask was shaken gently, and the trypsin was removed after full contact with the cell, and then the culture flask was placed into a 37° C. incubator containing 5% CO2 for about 1 minute;
(5) the cells were resuspended with 10 mL of cell culture medium, and about 0.6 mL of cell suspension (ViCell XR) was taken out for counting;
(6) the cell suspension was diluted with culture medium to a cell density required for plating of 2.5×10^4 cells per mL;
(7) 100 μL of PBS was added to each well around the cell plate, and 40 μL of cell suspension was added to the other wells, and placed in a 37° C. incubator containing 5% CO2 for overnight culture.
(8) The required cell amount and culture medium were taken based on the new T75 culture flask for continued culture.
(1) the compound to be tested was prepared into […] solution with DMSO;
(2) 9 μL of the compound was taken and added to Echo shallow well plate (Labcyte, #LP-0200), and the shallow well plate was centrifuged at 1000 rpm for 10 seconds;
(3) DPBS at the periphery of the cell plate was sucked out;
(4) the compound was gradient diluted and administrated with Echo, and 10 concentration gradients of each compound were diluted, and 100 nL of the diluent was added to the 384 cell plate separately, and then the cell plate was put back to the incubator and cultured for three days;
(5) then 100 μL of DPBS was added to the periphery of the cell plate.
(1) CTG was added and the plate was read: 20 μL of CellTiterGlo was added to each well of the cell plate, and the cell plate was shaken in the dark for 10 min. and the plate was read on Envision.
On the technique in general: ATP-based viability assays read luminescence as a measure of living cells.

Data set [3] can be described thus: Pharmacokinetics of single intravenous and oral administration in dogs. Type of data set: in vivo. The settings on record: dog. The method, then: as §1, §2, §3, §4
The test system of a further data set is Colo205 cells. In words: Colo205 (BRAF V600E) antiproliferative activity experiment (CellTiter-glo). The settings on record: Homo sapiens, COLO 205, 72 h, cultured 3 days. Type of data set: cell-based. The procedure:
Experimental Embodiment 4: Colo205 (BRAF^V600E) Antiproliferative Activity Experiment
Cell line COLO205 (purchased from Procell), RPMI1640 culture medium, penicillin/streptomycin antibiotics were purchased from Vicente, and fetal bovine serum was purchased from Biosera. CellTiter-glo (cell viability chemiluminescence detection reagent) reagent was purchased from Promega.
COLO205 cells were seeded in a white 96-well plate with […] of cell suspension per well containing 3000 of COLO205 cells. The cell plate was placed in a carbon dioxide incubator and cultured overnight. The compound to be tested was diluted 3-fold to the 9th concentration with a pipette, that is, diluted from […], and a double-duplicate experiment was set-up. 78 μmol of culture medium was added to the middle plate, then 2 μmol of gradient dilution compound per well was transferred to the middle plate according to the corresponding position, and 20 μmol of per well was mixed and transferred to the cell plate. The concentration of the compound transferred to the cell plate ranged from 1 μmol to 0.15 nmol. The cell plate was placed in a carbon dioxide incubator and cultured for 3 days. Another cell plate was prepared, and the signal value was read as the maximum value (max value in the following equation) on the day of administration to participate in data analysis. 25 μmol of cell viability chemiluminescence detection reagent was added to each well of the cell plate and incubated at room temperature for 10 minutes to stabilize the luminescence signal. A multi-marker analyzer reading was used. After the incubation of the cell plate added with the compound was finished, 25 μmol of cell viability chemiluminescence detection reagent was added to each well of the cell plate and incubated at room temperature for 10 minutes to stabilize the luminescence signal. A multi-marker analyzer reading was used.
The equation (Sample−Min)/(Max−Min)*100% was used to convert the original data into inhibition rate, and the IC50 value could be obtained by curve fitting with four parameters (obtained by “log (inhibitor) vs. response—variable slope” mode in GraphPad Prism).

Read-outs that look alike come from different tables or passages of the source.

Here are results for 4 compounds from US11718610B2, “Compounds containing benzosultam” (MEDSHINE DISCOVERY INC., priority 2020, dated 2023).

What is called IC50 is the midpoint of a concentration-inhibition curve. For orientation: Tmax means the time at which the peak concentration occurs. For orientation: bioavailability means the share of a dose that reaches the circulation, judged against a reference dose that is usually intravenous. Lower therefore signals poor availability.

For the compound `COc1cc(F)cc([C@@H](CO)NC(=O)[C@@H](C)N2Cc3ccc(-c4nc(NC5CCOCC5)ncc4Cl)cc3S2(=O)=O)c1` [Compound 1], the IC50 in data set [1] is 5.88 nM. Moreover, in data set [2] (mouse, plasma), the Vd stood at 0.4 L/kg, the clearance is 10.3 mL/min/kg, the half-life is 1.16 h and the Tmax turned out to be 1 h. The Cmax in data set [2] was 73.4 µM. For the same compound, the IC50 in the data set with Calu-6 cells was found to be 88.5 nM.

As for `COc1cc(F)cc([C@@H](CO)NC(=O)[C@@H](C)N2Cc3ccc(-c4nc(NC5CCOCC5)ncc4Br)cc3S2(=O)=O)c1` [Compound 3], the Apparent distribution volume in data set [3] (intravenous injection, 2 mg/kg/day) was 0.112 L/kg. Besides, in data set [3] (oral, 10 mg/kg/day), the “Maximum plasma drug concentration” value came to 26700 nmol/L and the Peak time came to 3.00 h. Also, the clearance in data set [3] (plasma, intravenous injection, 2 mg/kg/day, read-out: Clearance rate) was determined as 1.34 mL/min/kg. Also, the half-life in data set [3] (plasma, intravenous injection, 2 mg/kg/day, read-out: Half-life (T1/2) (converted)) is 4.3 h. Besides, the bioavailability in data set [3] (plasma, oral 10 mg/kg/day vs intravenous 2 mg/kg/day) turned out to be 59.8%. Moreover, the IC50 in data set [1] was 3.98 nM. For the same compound, the Cmax in data set [2] (mouse, plasma, po) was 156 µM. For the same compound, in data set [2] (mouse, plasma), the Vd came to 0.656 L/kg, the clearance was determined as 19 mL/min/kg, the half-life was 2.18 h and the Tmax came out at 1 h. This compound had an IC50 with Calu-6 cells (Homo sapiens, Calu-6, 72 h) of 300 nM. 16 nM corresponded to half-maximal inhibition with Colo205 cells (IC50).

In the case of `[2H]C1([2H])CC(Nc2ncc(Cl)c(-c3ccc4c(c3)S(=O)(=O)N([C@H](C)C(=O)N[C@H](CO)c3cc(F)cc(OC)c3)C4)n2)CC([2H])([2H])O1` [Compound 9], the IC50 in data set [1] worked out at 3.99 nM. For the same compound, the Cmax in data set [2] (mouse, plasma, po) was 124 µM. Moreover, in data set [2] (mouse, plasma), the Vd amounted to 0.297 L/kg, the clearance turned out to be 7.03 mL/min/kg, the half-life was 1.26 h and the Tmax came out at 1.5 h. Further, the IC50 with Calu-6 cells (Homo sapiens, Calu-6, 72 h) stood at 222 nM. Further, the IC50 in the data set with Colo205 cells worked out at 14 nM.

As to `COc1cc(F)cc([C@@H](CO)NC(=O)[C@@H](C)N2Cc3ccc(-c4nc(N[C@H]5CCOC[C@H]5F)ncc4Cl)cc3S2(=O)=O)c1` [Compound 11], the IC50 in data set [1] came to 6.51 nM. The Cmax in data set [2] (mouse, plasma, po) is 157 µM. In data set [2] (mouse, plasma), the Vd turned out to be 0.422 L/kg, the clearance worked out at 13.8 mL/min/kg, the half-life was 1.17 h and the time of peak concentration (Tmax) was 0.75 h. In the data set with Colo205 cells, this compound gave an IC50 of 16 nM.
